Results from patent US9227962B2, “Heterocyclic substituted-3-heteroarylidenyl-2-indolinone derivative” (Dainippon Sumitomo Pharma Co., Ltd., priority 2013, dated 2016).
Values after ≈ are worked out from the molar mass of the structure shown. Like-named read-outs stand apart in the source and are kept apart here.

Columns and labels:
[1] = solubility in buffer solution, HPLC; assay type: physicochemical; details: kinetic from dmso stock
Protocol: A solution of compounds (10 mM in dimethylsulfoxide, 2 μL) was diluted with 50% acetonitrile (198 μL), and this solution was used as a standard solution.
On the other hand, a solution of compounds (10 mM in dimethylsulfoxide, 15 μL) was transferred to a 96 well plate, then solvent was removed in vacuo. Dimethyl sulfoxide (3 μL) was added to dissolve a residual solid, and then buffer solution (pH7.4 or 1.2, 300 μL) was added. The mixture was vigorously stirred for 90 min, then leave it for 16-20 h. An insoluble material was removed, then the solution was analyzed by HPLC. The concentration of compound, which was corresponding to a solubility of the compound, was determined by the comparison with area value between sample and the standard solution.

[2] = tested on: CD44high FaDu cancer stem cells; experiment: sphere assay (sphere formation of CSC); assay type: cell-based; details: Homo sapiens, spheres scored after 10-14 days
From the text: CSC isolation with surface markers: Sorting tumor cells based primarily upon the differential expression of the surface marker(s), such as CD44 or CD133, have accounted for the majority of the highly tumorigenic CSCs described to date. CD44^high cells were isolated by FACS according to the methods described in Ponti et al, with slight modification [Ponti, D., et al, Isolation and in vitro propagation of tumorigenic breast cancer cells with stem/progenitor cell properties. Cancer Res, 2005. 65(13); p. 5506-11.], Briefly, after trypsinization and recovery of cells for 30 minutes at 37° C. in growth media, cells were pelleted at 400×g and were resuspended in PBS with 2% FBS and ImM EDTA at 1×10^6 cells/mL. Cells were then incubated on ice with a 1:100 dilution of CD44-FITC (BD Biosicences, San Diego, Calif.) for 15 minutes. Alternatively, CD24-PE (BD Bioscences, San Diego, Calif.) (1:100) was utilized for negative selection. After washing three times, cells were resuspended at […] and passed through a […] before sorting.
Sphere assay: A reliable method of measuring the self-renewal capacity of cell population if the ability to be cultured as spheres in the absence of serum or attachment. CD44^high FaDu cancer stem cells were cultured in ultra low attachment plates in cancer stem cell media (DMEM/F12, B27 Neurobasal supplement, 20 ng/ml EGF, 10 ng/rnl FGF, 4 µg/ml insulin, and 0.4% BSA) to allow spheres formation. Typically, sphere formation was evaluated by microscopy after 10-14 days in culture and spheres with >50 cells were scored.

FaDu = experiment: colony formation assay (cell viability determination); assay type: cell-based; details: Homo sapiens; FaDu cells, colonies counted after 7-10 days; read-out: colonyformation IC50
Protocol: Cell Culture: FaDu (ATCC, Manassas, Va.) was maintained in Dulbecco's Modified Eagle Medium (DMEM) (Invitrogen, Carlsbad, Calif.) supplemented with 10% fetal bovine serum (FBS) (Gemini Bio-Products, West Sacramento, Calif.) and 5% penicillin/streptomycin/amphotercin B (Invitrogen).
Cell Viability Determination: For colony formation assay, cells were plated in 6 well plates at 2000 cells per well. Twenty-four hours after plating, cells were treated with compound. Colonies were allowed to develop for 7-10 days, at which they were stained with modified Giemsa stain (Sigma). Stained colonies were then counted to determine IC50.

[3] = aqueous buffer, buffer solution pH 7.4, read-out: solubility pH 7.4
[4] = simulated gastric fluid, buffer solution pH 1.2, read-out: solubility pH 1.2

SMILES	solubility [1, 3] [µg/mL]	solubility [1, 4] [µg/mL]	IC50 [2] [µM]	IC50 (FaDu) [µM]
CCN(CC)CCNC(=O)c1c(C)[nH]c(/C=C2\C(=O)Nc3ccc(-c4nc(-c5ccccc5)n[nH]4)cc32)c1C [Example 50]	7 (≈ 13.4 µM)	154 (≈ 294 µM)		
CCN(CC)CCNC(=O)c1c(C)[nH]c(/C=C2\C(=O)Nc3ccc(C4CCN(C5CCOCC5)CC4)cc32)c1C [Example 12]	> 200	> 200	> 50	
CCN(CC)CCNC(=O)c1c(C)[nH]c(/C=C2\C(=O)Nc3ccc(-n4cc(-c5ccccc5)nn4)cc32)c1C [Example 49]	13 (≈ 24.8 µM)	109 (≈ 208 µM)		
Cc1[nH]c(/C=C2\C(=O)Nc3ccc(-c4cnn(-c5ccccn5)c4)cc32)c(C)c1C(=O)N1CCOCC1 [Example 30]				> 100
CCN(CC)CCNC(=O)c1c(C)[nH]c(/C=C2\C(=O)Nc3ccc(C4CCN(C5CCN(C(C)=O)CC5)CC4)cc32)c1C [Example 45]			> 50	
CCN(CC)CCNC(=O)c1c(C)[nH]c(/C=C2\C(=O)Nc3ccc(-c4cn(-c5ccccc5)nn4)cc32)c1C [Example 48]	< 0.3	147 (≈ 281 µM)		
CCN(CC)CCNC(=O)c1c(C)[nH]c(/C=C2\C(=O)Nc3ccc(C4CCN(c5ccccc5)CC4)cc32)c1C [Example 42]	11 (≈ 20.4 µM)	> 200		
CCN(CC)CCNC(=O)c1c(C)[nH]c(/C=C2\C(=O)Nc3ccc(-c4cc(-c5ccccc5)nn4C)cc32)c1C [Example 55]	0.5 (≈ 0.932 µM)	43 (≈ 80.1 µM)		

Continued, in another order:

solubility [1, 3] [µg/mL]	solubility [1, 4] [µg/mL]	IC50 [2] [µM]	SMILES	IC50 (FaDu) [µM]
< 0.5	> 200		CCN(CC)CCNC(=O)c1c(C)[nH]c(/C=C2\C(=O)Nc3ccc(-c4nc(-c5ccccc5)cs4)cc32)c1C [Example 51, (Z)—N-(2-(diethylamino)ethyl)-2,4-dimethyl-5-((2-oxo-5-(4-phenylthiazol-2-yl)indolin-3-ylidene)methyl)-1H-pyrrole-3-carboxamide]	
0.4 (≈ 0.738 µM)	163 (≈ 301 µM)	1.9	CCN(CC)CCNC(=O)c1c(C)[nH]c(/C=C2\C(=O)Nc3ccc(C4CCN(c5ncccn5)CC4)cc32)c1C [Example 43]	
		0.2	Cc1[nH]c(/C=C2\C(=O)Nc3ccc(-c4cnn(-c5ccccn5)c4)cc32)c(C)c1C(=O)N1CCN(C)CC1 [Example 31]	
< 0.5	> 200		CCN(CC)CCNC(=O)c1c(C)[nH]c(/C=C2\C(=O)Nc3ccc(-c4ccc(-c5cccnc5)s4)cc32)c1C [Example 26]	
0.3 (≈ 0.574 µM)	186 (≈ 356 µM)		CCN(CC)CCNC(=O)c1c(C)[nH]c(/C=C2\C(=O)Nc3ccc(-c4cnc(-c5ccccc5)[nH]4)cc32)c1C [Example 41]	
		2	Cc1nc(-c2ccccc2)oc1-c1ccc2c(c1)NC(=O)/C2=C\c1[nH]c(C)c(C(=O)N2CCN(C)CC2)c1C [Example 38]	6.2
61 (≈ 116 µM)	> 200		CCN(CC)CCNC(=O)c1c(C)[nH]c(/C=C2\C(=O)Nc3ccc(-c4nnc(-c5ccccc5)o4)cc32)c1C [Example 53]	
4 (≈ 7.4 µM)	163 (≈ 301 µM)		CCN(CC)CCNC(=O)c1c(C)[nH]c(/C=C2\C(=O)Nc3ccc(-c4nnc(-c5ccccc5)s4)cc32)c1C [Example 52]	
